Results published in patent US8633245B2, “PAI-1 inhibitor” (Institute of Medicinal Molecular Design, Inc., priority 2008, dated 2014).
Where two headings read alike, the source gives them in different places.

Biological target: T1, recombinant human PAI-1 (Homo sapiens, UniProt P05121)
T1 construct: purchased Molecular Innovations, Inc
Test: Test Example 2: human PAI-1 inhibitory activity (tPA fluorogenic substrate, pH 7.4 HEPES buffer)
Assay type: biochemical
Experimental: 0.1 M HEPES, 0.1 M NaCl. 1 mM EDTA. 0.1% Polyethylene glycol 8,000 (Hampton Research Corporation),
2 mM Dimethyldecylphoshine oxide [Apo-10] (Fluka Corporation)

[1] = read-out: Inhibition Rate of PAI-1 Activity (%)
[2] = human PAI-1, compound concentration 0.1 μM
[3] = human PAI-1, compound concentration 0.3 μM
[4] = human PAI-1, compound concentration 1 μM
[5] = human PAI-1, compound concentration 3 μM
[6] = human PAI-1, compound concentration 10 μM
[7] = human PAI-1, compound concentration 25 μM
[8] = human PAI-1, calculated from the inhibition rates

T1 sequence (P05121 24-402): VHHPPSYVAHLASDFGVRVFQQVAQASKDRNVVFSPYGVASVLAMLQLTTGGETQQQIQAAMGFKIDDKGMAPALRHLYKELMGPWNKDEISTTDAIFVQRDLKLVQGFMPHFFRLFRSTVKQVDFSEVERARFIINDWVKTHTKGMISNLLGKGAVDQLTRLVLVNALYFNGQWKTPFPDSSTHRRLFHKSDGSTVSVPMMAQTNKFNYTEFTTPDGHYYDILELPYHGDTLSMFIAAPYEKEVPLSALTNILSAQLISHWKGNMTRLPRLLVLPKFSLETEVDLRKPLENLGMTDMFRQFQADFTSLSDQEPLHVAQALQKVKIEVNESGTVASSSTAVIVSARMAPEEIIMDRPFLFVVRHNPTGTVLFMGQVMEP

Structure (SMILES) | Inhibition Rate of PAI-1 Activity (%) [2] | Inhibition Rate of PAI-1 Activity (%) [3] | Inhibition Rate of PAI-1 Activity (%) [4] | Inhibition Rate of PAI-1 Activity (%) [5] | further results
O=C(O)C(=O)N(CCCCc1ccccc1)c1cc(-c2ccc(OC(F)(F)F)cc2)ccc1OCCCCC(F)(F)F [Compound 381] | – | – | – | – | IC50: 1040 nM; inhibition at 3 µM [1]: > 99%
CCCCCOc1ccc(-c2ccc(OC(F)(F)F)cc2)cc1N(CCCCc1ccc(Cl)cc1)C(=O)C(=O)O [Compound 384] | – | – | – | – | IC50: 510 nM
O=C(O)/C=C/c1ccc(-c2ccc(OC(F)(F)F)cc2)cc1Sc1ccccc1 [Compound 528] | 8% | 12% | 51% | 97% | –
O=C(O)C(=O)N(Cc1ccc(-c2ccc(OC(F)(F)F)cc2)cc1)c1ccccc1 [Compound 611] | – | – | 5% | 13% | Inhibition Rate of PAI-1 Activity (%) [6]: 45%; Inhibition Rate of PAI-1 Activity (%) [7]: 81%
CCCCCCCOc1cc(-c2ccc(OC(F)(F)F)cc2)ccc1N(CCCCc1ccccc1)C(=O)C(=O)O [Compound 386] | – | – | – | – | IC50: 470 nM; inhibition at 1 µM [1]: > 99%; inhibition at 3 µM [1]: > 99%
Cc1cccc(-c2ccc(Oc3ccc(C(C)(C)C)cc3)c(OCC(=O)O)c2)c1 [Compound 316] | – | – | – | – | IC50 [8]: 1780 nM
CC(C)(Oc1c(Oc2ccc(C(C)(C)C)cc2)cccc1-c1ccc(OC(F)(F)F)cc1)C(=O)O [Compound 251] | – | – | – | – | IC50 [8]: 1350 nM
CCCCCOc1ccc(Oc2ccc(OC(F)(F)F)cc2)cc1N(CCCCc1ccccc1)C(=O)C(=O)O [Compound 363] | – | – | – | – | IC50: 830 nM; inhibition at 3 µM [1]: > 99%
CC(C)(C)C1CCC(CN(C(=O)C(=O)O)c2ccc(-c3ccc(OC(F)(F)F)cc3)cc2)CC1 (stereo not shown) [Compound 679] | – | 9% | – | >99% | Inhibition Rate of PAI-1 Activity (%) (human PAI-1, compound concentration 0.1 μM, 0.1 µM): 6%; Inhibition Rate of PAI-1 Activity (%) (human PAI-1, compound concentration 1 μM, 1 µM): 84%
CCCCCCCOc1ccc(-c2ccc(OC(F)(F)F)cc2)cc1N(CCCCc1ccccc1)C(=O)C(=O)O [Compound 371] | 10% | 17% | 93% | 91% | IC50 (concentration that inhibits 50% of the human PAI-1 activity, calculated from Test Example 2 inhibition rates): 690 nM
CCCCCOc1cc(-c2ccc(OC(F)(F)F)cc2)cc(N(CCCCc2ccccc2)C(=O)C(=O)O)c1OCCCCC [Compound 372] | – | – | – | – | IC50: 460 nM
O=C(O)CCc1ccc(-c2ccc(OC(F)(F)F)cc2)cc1Oc1ccc(OC(F)(F)F)cc1 [Compound 479] | 17% | 14% | 70% | >99% | –
O=C(O)CCCCCCCCOc1ccc(-c2ccc(OC(F)(F)F)cc2)cc1N(CCCCc1ccccc1)C(=O)C(=O)O [Compound 646] | 4% | 15% | 38% | 86% | –
CC(C)(C)c1ccc(Oc2cc(-c3ccc(OC(F)(F)F)cc3)ccc2CC(=O)O)cc1 [Compound 334] | – | – | – | – | IC50 [8]: 1910 nM
O=C(O)C(=O)N(CCCCc1ccccc1)c1cc(-c2ccc(OC(F)(F)F)cc2)ccc1Oc1ccccc1 [Compound 638] | 5% | 15% | 57% | >99% | –
CCCCCOc1ccc(-c2ccc(OC(F)(F)F)cc2)cc1N(CCCCc1ccccc1)CC(=O)O [Compound 640] | 0% | 19% | 92% | 92% | –

Structure (SMILES) | Inhibition Rate of PAI-1 Activity (%) [2] | Inhibition Rate of PAI-1 Activity (%) [3] | Inhibition Rate of PAI-1 Activity (%) [4] | Inhibition Rate of PAI-1 Activity (%) [5] | further results
O=C(O)CCc1ccc(-c2ccc(OC(F)(F)F)cc2)cc1OC(c1ccccc1)c1ccccc1 [Compound 507] | 6% | 8% | 49% | >99% | –
CCCCCOc1ccc(-c2ccc(C(C)C)cc2)cc1N(CCCCc1ccccc1)C(=O)C(=O)O [Compound 678] | 19% | 33% | 97% | 94% | –
CC(C)(C)c1ccc(Oc2cc(-c3cccc(OC(F)(F)F)c3)ccc2OCC(=O)O)cc1 [Compound 331] | – | – | – | – | IC50 [8]: 790 nM
CCCCC(Oc1ccc(-c2cccc(C(F)(F)F)c2)cc1Oc1ccc(C(C)(C)C)cc1)C(=O)O (stereo not shown) [Compound 320] | – | – | – | – | IC50 [8]: 740 nM
CCCCCCCCCCCCCCCOc1ccc(-c2ccc(OC(F)(F)F)cc2)cc1N(CCCCc1ccccc1)C(=O)C(=O)O [Compound 375] | – | – | – | – | IC50: < 100 nM; inhibition at 1 µM [1]: > 99%
CCCCC(Oc1cc(-c2ccc(OC(F)(F)F)cc2)ccc1OCCCCc1ccccc1)C(=O)O (stereo not shown) [Compound 306] | – | – | – | – | IC50 [8]: 880 nM
CCCCCCCCCOc1cc(N(Cc2ccc(C(C)(C)C)cc2)C(=O)C(=O)O)ccc1-c1ccc(OC(F)(F)F)cc1 [Compound 388] | – | – | – | – | IC50: < 100 nM; inhibition at 0.3 µM [1]: > 99%; inhibition at 1 µM [1]: > 99%; inhibition at 3 µM [1]: > 99%
O=C(O)C(=O)N(CCCCc1ccccc1)c1cc(-c2ccc(OC(F)(F)F)cc2)ccc1OC1CCCCCC1 [Compound 659] | 12% | 26% | >99% | 96% | –
CC(C)c1ccc(Sc2cc(-c3ccc(OC(F)(F)F)cc3)ccc2/C=C/C(=O)O)cc1 [Compound 516] | 16% | 39% | 98% | >99% | –
CC(C)(C)OCCOc1ccc(-c2ccc(OC(F)(F)F)cc2)cc1N(CCCCc1ccccc1)CC(=O)O [Compound 644] | 27% | 8% | 30% | 93% | –
CN(C(=O)c1ccc(N(Cc2ccc(C(C)(C)C)cc2)C(=O)C(=O)O)cc1)c1ccc(OC(F)(F)F)cc1 [Compound 618] | – | – | 0% | 24% | Inhibition Rate of PAI-1 Activity (%) [6]: 78%; Inhibition Rate of PAI-1 Activity (%) [7]: >99%
CCCCCOc1ccc(-c2ccc(Cl)cc2)cc1N(CCCCc1ccccc1)C(=O)C(=O)O [Compound 361] | – | – | – | – | IC50: 830 nM
CCCCCOc1cc(Oc2ccc(OC(F)(F)F)cc2)ccc1N(CCCCc1ccccc1)C(=O)C(=O)O [Compound 362] | – | – | – | – | IC50: 840 nM; inhibition at 3 µM [1]: > 99%
CCCCCCC(Oc1cc(-c2ccc(OC(F)(F)F)cc2)ccc1Oc1ccc(C(F)(F)F)cc1)C(=O)O (stereo not shown) [Compound 327] | – | – | – | – | IC50 [8]: 420 nM
O=C(O)C(=O)N(CCCCc1ccccc1)c1cc(-c2ccc(OC(F)(F)F)cc2)ccc1N1CCCCC1 [Compound 370] | – | – | – | – | IC50: 940 nM

Continued, in another order:

Inhibition Rate of PAI-1 Activity (%) [2] | Inhibition Rate of PAI-1 Activity (%) [3] | Inhibition Rate of PAI-1 Activity (%) [4] | Inhibition Rate of PAI-1 Activity (%) [5] | Structure (SMILES) | further results
14% | 8% | 66% | >99% | CC(C)(C)c1ccc(Oc2cc(-c3ccc(OC(F)(F)F)cc3)ccc2C(=O)O)cc1 [Compound 434] | –
4% | 22% | 96% | >99% | CC(C)(C)c1ccc(Oc2cc(-c3ccc4ccccc4c3)ccc2/C=C/C(=O)O)cc1 [Compound 469] | –
21% | 22% | 96% | >99% | CC(C)(C)c1cccc(Oc2cc(-c3cccc(OC(F)(F)F)c3)ccc2/C=C/C(=O)O)c1 [Compound 514] | –
18% | 41% | 96% | 98% | CCCCc1ccc(Oc2cc(-c3ccc(OC(F)(F)F)cc3)ccc2CCC(=O)O)cc1 [Compound 512] | –
0% | 8% | 84% | >99% | CC(C)c1ccc(Oc2cc(-c3ccc(OC(F)(F)F)cc3)ccc2CCC(=O)O)cc1 [Compound 510] | –
6% | 13% | 91% | >99% | CC(C)c1ccccc1Oc1cc(-c2ccc(OC(F)(F)F)cc2)ccc1/C=C/C(=O)O [Compound 490] | –
– | – | 11% | 59% | CC(C)(C)c1ccc(CN(C(=O)CC(=O)O)c2ccc(-c3ccc(OC(F)(F)F)cc3)cc2)cc1 [Compound 608] | Inhibition Rate of PAI-1 Activity (%) [6]: 95%; Inhibition Rate of PAI-1 Activity (%) [7]: 95%
1% | 26% | 95% | 98% | CCCCOc1ccc(Oc2cc(-c3ccc(OC(F)(F)F)cc3)ccc2CCC(=O)O)cc1 [Compound 461] | –
4% | 11% | 39% | >99% | CSc1ccc(-c2ccc(OCC(=O)O)c(Oc3ccc(C(C)(C)C)cc3)c2)cc1 [Compound 448] | –
– | – | 49% | 94% | CC(C)(C)c1ccc(N(CC(=O)O)c2ccccc2Oc2ccc(OC(F)(F)F)cc2)cc1 [Compound 610] | Inhibition Rate of PAI-1 Activity (%) [6]: 97%; Inhibition Rate of PAI-1 Activity (%) [7]: 86%
20% | 50% | 95% | >99% | CC(C)(C)c1ccc(Sc2cc(-c3ccc(OC(F)(F)F)cc3)ccc2CCC(=O)O)cc1 [Compound 517] | –
